Assay results taken from paper PMC11796312, “Multifunctional, Fluorene‐Based Modulator of Cholinergic and GABAergic Neurotransmission as a Novel Drug Candidate for Palliative Treatment of Alzheimer's Disease” (Angewandte Chemie (International Ed. in English), 2024).
“And” between values parts separate entries of the source, which are not always exact repeats. Equal entries are not always repeated. Where two headings read alike, the source gives them in different places.

Tests used:
[1] = target: T1, human serotonin 5-HT6 receptor (Homo sapiens, UniProt P50406); assay: cAMP 5-HT6 functional assay; assay type: cell-based
T1 construct: host or cells: 1321N1
T1 sequence (P50406 whole entry): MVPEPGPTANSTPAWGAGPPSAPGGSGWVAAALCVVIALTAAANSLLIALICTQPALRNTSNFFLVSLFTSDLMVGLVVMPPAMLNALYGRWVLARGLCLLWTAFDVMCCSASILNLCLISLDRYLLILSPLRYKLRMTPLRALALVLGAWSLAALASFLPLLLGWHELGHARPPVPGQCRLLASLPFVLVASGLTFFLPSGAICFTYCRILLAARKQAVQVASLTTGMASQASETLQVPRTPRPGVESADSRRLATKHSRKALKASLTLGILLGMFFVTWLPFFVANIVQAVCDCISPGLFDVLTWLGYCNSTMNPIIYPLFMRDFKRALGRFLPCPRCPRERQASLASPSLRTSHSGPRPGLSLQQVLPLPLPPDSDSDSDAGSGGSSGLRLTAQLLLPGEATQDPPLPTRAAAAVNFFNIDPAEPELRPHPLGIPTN
Description: Functional assays for 5-HT6 receptor
Test compounds were dissolved in dimethyl sulfoxide (DMSO) at a concentration of 10 mM.
Serial dilutions were prepared in a 96-well microplate in assay buffer, and 8 concentrations
were tested. For the 5-HT6, adenylyl cyclase activity was monitored using cryopreserved
cells were resuspended in stimulation buffer (HBSS, 5 mM HEPES, 0.5 IBMX, and 0.1%
BSA at pH 7.4) at 2x10^5 cells/ml. The same volume (10 μl) of cell suspension was added to
the tested compounds. Samples were loaded onto a white opaque half-area 96-well
reference agonist for the 5-HT6 receptor. The agonist and antagonist were added
simultaneously. Cell stimulation was performed for 30 minutes at room temperature. After
incubation, cAMP measurements were performed with homogeneous TR-FRET immunoassay
using the LANCE Ultra cAMP kit (PerkinElmer, USA). The volume of 10 μl of EucAMP
Tracer Working Solution and 10 μl of ULight-anti-cAMP Tracer Working Solution were
added, mixed, and incubated for 1 h. The TR-FRET signal was read on an EnVision
microplate reader (PerkinElmer, USA). IC 50 and EC 50 were determined by nonlinear
regression analysis using GraphPad Prism 9.0 software.

[2] = target: T2, mGAT1 (Mus musculus, UniProt P31648); assay: MS Binding Assay with NO 711 as marker
[3] = tested on: SH-SY5Y cells; assay: Intracellular RONS, DCFH-DA probe, SH-SY5Y; assay type: cell-based, human; settings: IC50, ½ IC50, ¼ IC50, 1, 4, 24 h
[4] = target: T3, human serotonin 5-HT7 receptor (Homo sapiens, UniProt P34969); assay: cAMP 5-HT7 functional assay; assay type: cell-based
T3 construct: host or cells: CHO-K1 (with CRE-bla reporter)
T3 sequence (P34969 whole entry): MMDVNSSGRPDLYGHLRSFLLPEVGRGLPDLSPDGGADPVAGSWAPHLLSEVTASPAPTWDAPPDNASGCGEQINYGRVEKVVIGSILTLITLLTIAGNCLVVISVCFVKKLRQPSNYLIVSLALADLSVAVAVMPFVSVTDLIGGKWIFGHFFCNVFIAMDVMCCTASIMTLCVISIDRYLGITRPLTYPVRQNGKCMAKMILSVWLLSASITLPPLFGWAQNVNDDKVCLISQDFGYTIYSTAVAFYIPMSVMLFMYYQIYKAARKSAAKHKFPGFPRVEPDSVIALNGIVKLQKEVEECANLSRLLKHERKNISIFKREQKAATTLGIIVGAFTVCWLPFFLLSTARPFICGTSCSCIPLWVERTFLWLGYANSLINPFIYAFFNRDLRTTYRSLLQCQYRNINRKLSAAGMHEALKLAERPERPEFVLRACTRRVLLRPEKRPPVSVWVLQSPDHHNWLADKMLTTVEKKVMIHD
Description: Functional assays for 5-HT7 receptor
Test and reference compounds were dissolved in dimethyl sulfoxide (DMSO) at a
concentration of 10 mM. Serial dilutions were prepared in a 96-well microplate in assay
buffer, and 8 to 10 concentrations were tested. For the 5-HT7, adenylyl cyclase activity was
The functional assay was performed on cells expressing the human 5-
CHO-K1 cells were transfected with a beta-
lactamase (bla) reporter gene under the control of the cyclic AMP response element (CRE)
(Life Technologies). Thawed cells were resuspended in stimulation buffer (HBSS, 5 mM
HEPES, 0.5 IBMX, and 0.1% BSA at pH 7.4) at 2x10^5 cells/ml for 5-HT7 receptor. The same
volume (10 μl) of cell suspension was added to tested compounds for the 5 -HT7 receptor.
Samples were loaded onto a white opaque half-area 96-well microplate. The antagonist
The agonist and antagonist were added simultaneously. Cell stimulation was
performed for 1 h at room temperature. After incubation, cAMP measurements were
performed with homogeneous TR-FRET immunoassay using the LANCE Ultra cAMP kit
(PerkinElmer, USA). The volume of 10 μl of EucAMP Tracer Working Solution and 10 μl of
ULight-anti-cAMP Tracer Working Solution were added, mixed, and incubated for 1 h.
TR-FRET signal was read on an EnVision microplate reader (PerkinElmer, USA). IC50 and
EC50 were determined by nonlinear regression analysis using GraphPad Prism 9.0 software.

[5] = tested on: SIM-A9 cells; assay: LC-MS determination of total MDA, SIM-A9; assay type: cell-based, mouse; settings: all time intervals
[6] = target: T4, mGAT2 (Mus musculus, UniProt P31651); assay: [3H]GABA uptake assay, mGAT2; assay type: cell-based
T4 sequence (P31651 1-614): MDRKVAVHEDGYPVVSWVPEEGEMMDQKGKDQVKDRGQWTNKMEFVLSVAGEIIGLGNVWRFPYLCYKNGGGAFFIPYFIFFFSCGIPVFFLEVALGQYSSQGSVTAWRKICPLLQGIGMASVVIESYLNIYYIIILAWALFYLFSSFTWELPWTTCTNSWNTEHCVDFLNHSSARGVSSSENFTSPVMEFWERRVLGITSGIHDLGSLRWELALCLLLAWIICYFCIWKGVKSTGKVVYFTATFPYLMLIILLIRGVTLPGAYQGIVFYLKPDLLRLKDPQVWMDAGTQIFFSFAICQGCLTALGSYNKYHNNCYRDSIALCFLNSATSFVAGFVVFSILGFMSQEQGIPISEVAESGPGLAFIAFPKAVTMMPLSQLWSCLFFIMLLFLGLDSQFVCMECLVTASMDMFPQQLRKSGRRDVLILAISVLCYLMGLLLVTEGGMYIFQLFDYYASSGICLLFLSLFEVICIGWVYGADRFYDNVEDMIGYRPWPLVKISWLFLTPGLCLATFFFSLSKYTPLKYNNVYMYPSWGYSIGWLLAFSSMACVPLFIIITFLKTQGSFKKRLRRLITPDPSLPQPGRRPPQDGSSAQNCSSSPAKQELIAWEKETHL

[7] = Pharmacokinetic study after i.p. administration; assay type: in vivo; settings: mice, 10 mg/kg i.p.
Description: (§1) Pharmacokinetic study after i.p. and i.g administration
(§2) mg/kg), blood samples were collected from mice under deep terminal anesthesia directly by cardiac puncture into heparinized 1.5 mL tubes at selected time intervals.
(§3) The samples were centrifuged at 3,000 × g for 10 min (10 °C), and the plasma samples were stored at -80 °C until the HPLC analysis.
(§4) The blood in brain vessels would interfere with the assay of actual brain tissue concentrations.
(§5) Therefore, the animals were perfused transcardially with saline solution (0.9% NaCl) for 5 min (10 mL/min). After perfusion, the skull was opened, and the brain was carefully removed and immediately stored at -80 °C until the HPLC analysis.
(§6) UHPLC-MS method for pharmacokinetics study
(§7) Ultra high-performance liquid chromatography system consisting of Ultimate 3000 RS pump Dionex (Thermo Scientific, San Jose, CA, USA) coupled with high-resolution mass spectrometer with orbitrap analyzer (Q Exactive Focus, Thermo Scientific, San Jose, CA, USA) was used in quantitative analyses of 6 in plasma and brain homogenate. According to the EMA[43] and FDA[42] guidelines on Bioanalytical method validation, the method was fully validated for plasma and partially for brain homogenate.
(§8) Before analysis, 50 μL of plasma or brain homogenate was precipitated with an internal
(§9) standard of 200 μL acetonitrile (ACN). The mixture was vortexed for 1 min at 1,500 rpm and
(§10) centrifuged at 12,074 g for 5 min at 20 °C. The supernatant was then transferred to an
injection vial and analyzed.
(§11) mm ID (Phenomenex, Torrance, CA, USA), protected with a guard column SecurityGuard
(§12) was performed in gradient elution mode with a flow rate of 0.6 mL/min and the following
(§13) composition of mobile phase: A) 0.1% FA in water (v/v) and B) 0.1% FA in ACN/MeOH in
The column was kept at 45 °C during
(§14) analysis. Samples were held at 10 °C in a light-tight autosampler unit.
(§15) Heated-Electrospray Ionization II interface (HESI-II) in positive ion mode was used with the
(§16) following settings: spray voltage; +3.5 kV, S-lens RF level; +70 V, capillary temperature 350
(§17) °C, auxiliary gas heater temperature; 350 °C, sheet, and auxiliary gas flow; 45 and 15
(§18) arbitrary units, respectively. Full MS mode was used at resolution (m/𝛥m) ̴70,000 for
(§19) Xcalibur software (v 4.0) was used for data evaluation.

[8] = Pharmacokinetic study after i.g. administration; assay type: in vivo; settings: mice
Description: as §1, §2, §3, §4, §5, §6, §7, §8, §9, §10
injection vial and analyzed.
as §11, §12, §13
The column was kept at 45 °C during
as §14, §15, §16, §17, §18, §19

[9] = target: T2, mGAT1; assay: [3H]GABA uptake assay, mGAT1; assay type: cell-based

O[C@H](CNCC1CC1)[C@H](Cc1ccccc1)NC1c2ccccc2-c2ccccc21 [Compound 6]
EC50 [1]: 2.42 µM | Emax ([1]; read-out: 5-HT6 agonist mode E max % [10^-5 M]): 41% | Emax ([1]; read-out: 5-HT6 antagonist mode E max %): 3% | Ki [2]: 37.2 µM | increase in intracellular RONS [3]: no significant increase | Emax ([4]; read-out: 5-HT7 agonist mode E max % [10^-5 M]): 8% | Emax ([4]; read-out: 5-HT7 antagonist mode E max %): 0% | increase in intracellular level of MDA [5]: no significant increase | IC50 [6]: 10.7 µM | Tmax ([7]; ICR-CD1, mouse, brain, ip, 10 mg/kg, read-out: brain Tmax (converted)): 0.917 h | Kp ([7]; ICR-CD1, mouse, brain/plasma, ip, 10 mg/kg, read-out: Kp (AUCbrain/AUCplasma), brain-to-plasma ratio): 11.1 | MRT ([7]; ICR-CD1, mouse, ip, plasma): 3.62 h | k el ([7]; ICR-CD1, mouse, ip, plasma, read-out: λz (converted)): 7.5e-05 s⁻¹ | Cmax ([7]; ICR-CD1, mouse, plasma, ip, 10 mg/kg): 430 ± 57.9 ng/mL | half-life ([7]; ICR-CD1, mouse, plasma, ip, 10 mg/kg, plasma, read-out: Half-life): 2.69 ± 0.237 h | Vd/F ([7]; ICR-CD1, mouse, plasma, ip, 10 mg/kg, plasma, read-out: Vss/F): 38.2 ± 4.47 L/kg | Vd/F ([7]; ICR-CD1, mouse, plasma, ip, 10 mg/kg, plasma, read-out: Vz/F): 40.9 ± 4.95 L/kg | Tmax ([7]; ICR-CD1, mouse, plasma, ip, 10 mg/kg, read-out: plasma Tmax (converted)): 0.389 h | brain AUCtotal [7]: 650,923.00 ± 152,288.00 min.ng/g | plasma AUCtotal [7]: 58,804.62 ± 3,318.21 min.ng/mL | CL ([7]; plasma): 170 ± 10 mL/min/kg | Vz/F ([7]; plasma, 10 mg/kg): ~ 41 L/kg | half-life ([7]; plasma, 10 mg/kg): ~ 161 min | Kp (AUCbrain/AUCplasma), brain-to-plasma ratio ([7]; 10 mg/kg): 11 | brain Cmax ([7]; 10 mg/kg): 833.00 ± 62.32 ng/g and 833 ng/g | plasma Cmax ([7]; 10 mg/kg): 430 ng/mL | Kp ([8]; ICR-CD1, mouse, brain and plasma, po, 10 mg/kg, 10 mg/kg i.g., read-out: Kp (AUCbrain/AUCplasma), brain-to-plasma ratio): 1.98 | Tmax ([8]; ICR-CD1, mouse, brain, po, 10 mg/kg, 10 mg/kg i.g., read-out: brain Tmax (converted)): 3.33 h | Cmax ([8]; ICR-CD1, mouse, plasma, po, 10 mg/kg, 10 mg/kg i.g.): 120 ± 30.7 ng/mL | half-life ([8]; ICR-CD1, mouse, plasma, po, 10 mg/kg, 10 mg/kg i.g., plasma, read-out: Half-life): 3.54 ± 0.449 h | Vd/F ([8]; ICR-CD1, mouse, plasma, po, 10 mg/kg, 10 mg/kg i.g., plasma, read-out: Vss/F): 120 ± 22.1 L/kg | Vd/F ([8]; ICR-CD1, mouse, plasma, po, 10 mg/kg, 10 mg/kg i.g., plasma, read-out: Vz/F): 102 ± 22.9 L/kg | Tmax ([8]; ICR-CD1, mouse, plasma, po, 10 mg/kg, 10 mg/kg i.g., read-out: plasma Tmax (converted)): 1.33 h | MRT ([8]; ICR-CD1, mouse, po, 10 mg/kg i.g., plasma): 6.08 h | k el ([8]; ICR-CD1, mouse, po, 10 mg/kg i.g., plasma, read-out: λz (converted)): 6e-05 s⁻¹ | plasma AUCtotal i.g. as % of AUCtotal after i.p. administration of the same dose ([8]; 10 mg/kg): approximately 60% | brain AUCtotal ([8]; 10 mg/kg i.g.): 68,547.70 ± 9,216.46 min.ng/g | brain Cmax ([8]; 10 mg/kg i.g.): 158.63 ± 20.04 ng/g | plasma AUCtotal ([8]; 10 mg/kg i.g.): 34,630.80 ± 4,866.51 min.ng/mL | CL ([8]; 10 mg/kg i.g., plasma): 320 ± 50 mL/min/kg | half-life ([8]; 10 mg/kg i.g., plasma, 10 mg/kg): 3.53 h | plasma Cmax ([8]; 10 mg/kg i.g., 10 mg/kg): 120 ng/mL | IC50 [9]: 11 µM
